One experiment concerns the target IRAK4 kinase (Homo sapiens (Human), UniProt Q9NWZ3). As to the kind of experiment: IRAK4 kinase activity inhibition assay (ADP-Glo). It is filed as biochemical. Particulars: 10 μM ATP, MBP substrate, 60 min at 25° C. As to the method: IRAK4 kinase (purchased from Life Technologies, Cat. No.: PR5612U) was diluted to 2 folds of the final concentration (the final concentration is 0.76 ng/μL) with reaction buffer (40 mM Tris-HCl, pH 7.5; 20 mM MgCl2; 0.1 mg/mL BSA; 1 mM DTT), and added to a 384-well plate at 5 μL/well. The test drugs were 10-fold serial diluted from 10 μM to set six concentration points and added to the test wells of the 384-well plate at 2.5 μL/well. After incubation for 10 min at 25° C., 10 μM of ATP and […] of an enzyme reaction substrate, myelin basic protein MBP (purchased from SignalChem, Cat. No.: M42-51N) were added at 2.5 µL/well, and reacted at 25° C. for 60 minutes. After the reaction was completed, the kinase activity assay was performed using the ADP-Glo™ kinase assay kit (purchased from Promega, Cat. No.: V9102) according to the manufacture's instruction, i.e., 10 μL of ADP-Glo reaction reagent was first added and reacted at 25° C. for 40 minutes, 10 μL of the solution to be tested was taken and mixed with 10 μL of ADP-Glo detection reagent, and reacted at 25° C. for 30 minutes. The kinase activity was then detected, and the IC50 values of the test drugs were calculated.
(In ADP-Glo the light output rises with the ADP produced.)

Experiment [1] relates to TNF-α secretion in THP-1 cells. As to the kind of experiment: LPS-induced TNF-α secretion assay in THP-1 cells (ELISA). Conditions: Homo sapiens; LPS-induced TNF-α secretion in THP-1 cells, 2 hours pre-incubation, 24 hours LPS. It is filed as cell-based. On the procedure:
The compounds of Examples 9, 98 and 105 of the invention were tested in LPS-induced TNF-α secretion assay in THP-1 cells. Human THP-1 cells (purchased from ATCC, Cat. No.: TIB-202) were cultured in RPMI-1640 medium (purchased from Gibco, Cat. No.: 22440) containing 10% fetal bovine serum (purchased from Gibco, Cat. No.: 10099-141) and 0.05 mM of 2-mercaptoethanol (purchased from Gibco, Cat. No.: 21985). The THP-1 cells in logarithmic growth phase were seeded in a 96-well plate at 2×10^5 cells/well/100 μL. The test samples were diluted with RMPI-1640 medium to 4 folds of the final concentration (5-fold dilutions starting from 10 μM, setting 6 drug concentrations, and testing in replicate wells at each concentration). The diluted test samples were added to the test wells seeded with cells at 50 μL/well, and RMPI-1640 medium (50 μL) was separately added to positive control and negative control wells. The 96-well plate was placed in the incubator at 37° C., 5% CO2 and pre-incubated for 2 hours. The 96-well plate was taken out, and 400 ng/mL of LPS (50 μL) (purchased from Sigma, Cat. No.: L6529-1MG) was added to each well of the test wells and the positive control wells, and RMPI-1640 medium (50 μL) was added to the negative control wells. After incubation in the incubator at 37° C., 5% CO2 for 24 hours, the cell culture supernatant was taken and determined for the content of TNF-α in the supernatant using a human TNF-α ELISA kit (purchased from DKW, Cat. No.: 12-1720-096).
A general note: In an ELISA, binding on a coated surface is turned into a signal by an enzyme label.

The next experiment concerns TMD-8 cells. Briefly: TMD-8 cell growth inhibition assay (CCK-8). The format is cell-based. Particulars: Homo sapiens, TMD8, 96 hours. As to the method:
The compounds of Examples 9, 98 and 105 of the invention were tested in TMD-8 cell growth inhibition assay. TMD-8 cells (available from Korea Hanmi Research Center) were cultured in RMPI-1640 medium (purchased from Gibco, Cat. No.: 22440) containing 10% fetal bovine serum (purchased from Gibco, Cat. No.: 10099-141). The TMD-8 cells in logarithmic growth phase were seeded in a 96-well plate at 20,000 cells/well/100 μL, and RMPI-1640 medium (100 μL) was added into blank control wells. The test samples were diluted with RMPI-1640 medium to 2 folds of the final concentration (10-fold dilutions starting from 10 μM, setting 6 drug concentrations, and testing in replicate wells at each concentration). The diluted test samples were added to test wells seeded with cells at 100 μL/well, and RMPI-1640 medium (100 μL) was separately added to the positive control wells and the blank control wells. The 96-well plate was placed in the incubator and reacted at 37° C., 5% CO2 for 96 hours. After the reaction was completed, the 96-well plate was taken from the incubator and to each well was added CCK-8 (100 μL) (purchased from DOJINDO, Cat. No.: CK04-11). Then the 96-well plate was put back to the incubator and incubated for another 2 hours. The light absorbance was measured at 450 nm, and the IC50 values were calculated therefrom.

This note sets out measurements from patent US10988482B2, “IRAK4 inhibitor and use thereof” (BEIJING HANMI PHARMACEUTICAL CO., LTD., priority 2015, dated 2021).

For orientation: IC50 means the concentration that inhibits the measured activity by half. Higher therefore signals a need for much substance.

Chain of IRAK4 kinase (Q9NWZ3 whole entry): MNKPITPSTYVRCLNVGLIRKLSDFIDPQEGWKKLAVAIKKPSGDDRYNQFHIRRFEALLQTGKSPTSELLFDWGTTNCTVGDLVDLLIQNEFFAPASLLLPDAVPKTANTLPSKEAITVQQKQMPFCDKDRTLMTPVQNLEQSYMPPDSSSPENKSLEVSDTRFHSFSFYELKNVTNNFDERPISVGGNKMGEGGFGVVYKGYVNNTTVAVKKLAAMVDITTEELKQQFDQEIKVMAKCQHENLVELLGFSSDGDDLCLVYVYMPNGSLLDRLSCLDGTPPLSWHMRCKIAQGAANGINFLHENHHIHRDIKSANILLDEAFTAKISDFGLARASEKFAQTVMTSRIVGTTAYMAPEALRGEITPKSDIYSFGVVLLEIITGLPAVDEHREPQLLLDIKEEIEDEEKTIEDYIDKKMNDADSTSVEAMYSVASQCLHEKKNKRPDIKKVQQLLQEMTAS

For the compound `COCCCn1ccc2nc(Nc3cc(C)ns3)nc(N[C@H]3CC[C@H](N4CCCCC4)CC3)c21` [Compound 105, 5-(3-methoxylpropyl)-N^4-(trans-4-(piperidin-1-yl)cyclohexyl)-N^2-(3-methylisothiazol-5-yl)-5H-pyrrolo[3,2-d]pyrimidine-2,4-diamine], the IC50 at IRAK4 kinase is not above 100 nM; in experiment [1] it was not above 500 nM; with TMD-8 cells, not above 500 nM.
